For one data set, the system named is recombinant NL4-3 virus. Nature of the data set: HIV cell culture assay (antiviral activity, luciferase readout). The note with it: Human immunodeficiency virus 1, NL43, MT2, MT-2 cells infected for 4-5 days with recombinant NL4-3 virus carrying Renilla luciferase. In kind it is cell-based. The method, boiled down: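 MT-2 cells infected for 4-5 days with NL4-3 reference virus carrying Renilla luciferase in place of part of nef, in presence of serial compound dilutions. Luciferase read with live-cell substrate; EC50 from median effect equation fit.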

Data set [1] can be described thus: Compound cytotoxicity, XTT-based colorimetric assay. In kind it is cell-based. The settings on record: human; uninfected MT2 cells, day 4, XTT assay. The method, boiled down: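 Run under the antiviral-assay protocol but without virus. Viability was read on day 4 and CC50 values were derived from the readout.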

What is called EC50 is the concentration giving half of the maximal effect. For orientation: CC50 means the concentration giving 50% cytotoxicity. A high value points to better tolerance by the cells.

Some results are limits rather than exact numbers.

For the molecule `Cn1nc(NS(C)(=O)=O)c2c(Cl)ccc(-n3c([C@H](Cc4cc(F)cc(F)c4)NC(=O)Cn4nc(C(F)F)c5c4C(F)(F)[C@@H]4C[C@H]54)nc4nc(-c5nccc(C(F)F)n5)ccc4c3=O)c21` (atropisomer, axis not shown; (P)) [Example 6, N-((S)-1-((3P)-3-(4-chloro-1-methyl-3-(methylsulfonamido)-1H-indazol-7-yl)-7-(4-(difluoromethyl)pyrimidin-2-yl)-4-oxo-3,4-dihydropyrido[2,3-d]pyrimidin-2-yl)-2-(3,5-difluorophenyl)ethyl)-2-((3bS,4aR)-3-(difluoromethyl)-5,5-difluoro-3b,4,4a,5-tetrahydro-1H-cyclopropa[3,4]cyclopenta[1,2-c]pyrazol-1-yl)acetamide], in the data set on recombinant NL4-3 virus, the EC50 turned out to be 0.023 nM. Also, in data set [1], the CC50 at 4 day was above 100 nM.
For `Cn1nc(NS(C)(=O)=O)c2c(Cl)ccc(-n3c([C@H](Cc4cc(F)cc(F)c4)NC(=O)Cn4nc(C(F)F)c5c4C(F)(F)[C@@H]4C[C@H]54)nc4nc(-c5cccc(C(F)F)c5)ccc4c3=O)c21` (atropisomer, axis not shown; (P)) [Example 23, N-((S)-1-((3P)-3-(4-chloro-1-methyl-3-(methylsulfonamido)-1H-indazol-7-yl)-7-(3-(difluoromethyl)phenyl)-4-oxo-3,4-dihydropyrido[2,3-d]pyrimidin-2-yl)-2-(3,5-difluorophenyl)ethyl)-2-((3bS,4aR)-3-(difluoromethyl)-5,5-difluoro-3b,4,4a,5-tetrahydro-1H-cyclopropa[3,4]cyclopenta[1,2-c]pyrazol-1-yl)acetamide], in that order: 0.11 nM and above 100 nM.
For `Cn1nc(NS(C)(=O)=O)c2c(Cl)ccc(-n3c([C@H](Cc4cc(F)cc(F)c4)NC(=O)Cn4nc(C(F)F)c5c4C(F)(F)[C@@H]4C[C@H]54)nc4nc(-c5ccccn5)ccc4c3=O)c21` (atropisomer, axis not shown; (P)) [Example 60, N-((S)-1-((3P)-3-(4-chloro-1-methyl-3-(methylsulfonamido)-1H-indazol-7-yl)-4-oxo-7-(pyridin-2-yl)-3,4-dihydropyrido[2,3-d]pyrimidin-2-yl)-2-(3,5-difluorophenyl)ethyl)-2-((3bS,4aR)-3-(difluoromethyl)-5,5-difluoro-3b,4,4a,5-tetrahydro-1H-cyclopropa[3,4]cyclopenta[1,2-c]pyrazol-1-yl)acetamide], in that order: 0.032 nM and above 100 nM.
Turning to `Cc1cc(-c2ccc3c(=O)n(-c4ccc(Cl)c5c(NS(C)(=O)=O)nn(C)c45)c([C@H](Cc4cc(F)cc(F)c4)NC(=O)Cn4nc(C(F)F)c5c4C(F)(F)[C@@H]4C[C@H]54)nc3n2)nn1CC(C)(F)F` (single isomer, unassigned) [Example 96], the EC50 in the data set with recombinant NL4-3 virus turned out to be 0.044 nM. Besides, the CC50 at 4 day in data set [1] was above 100 nM.
For `Cn1nc(NS(C)(=O)=O)c2c(Cl)ccc(-n3c([C@H](Cc4cc(F)cc(F)c4)NC(=O)Cn4nc(C(F)F)c5c4C(F)(F)[C@@H]4C[C@H]54)nc4ncc(-c5cccc(C(F)F)n5)cc4c3=O)c21` (atropisomer, axis not shown; (P)) [Example 3, N-((S)-1-((3P)-3-(4-chloro-1-methyl-3-(methylsulfonamido)-1H-indazol-7-yl)-6-(6-(difluoromethyl)pyridin-2-yl)-4-oxo-3,4-dihydropyrido[2,3-d]pyrimidin-2-yl)-2-(3,5-difluorophenyl)ethyl)-2-((3bS,4aR)-3-(difluoromethyl)-5,5-difluoro-3b,4,4a,5-tetrahydro-1H-cyclopropa[3,4]cyclopenta[1,2-c]pyrazol-1-yl)acetamide], in that order: 0.051 nM and above 100 nM.
For `Cn1nc(NS(C)(=O)=O)c2c(Cl)ccc(-n3c([C@H](Cc4cc(F)cc(F)c4)NC(=O)Cn4nc(C(F)F)c5c4C(F)(F)[C@@H]4C[C@H]54)nc4nc(-c5cccc(OC(F)F)c5)ccc4c3=O)c21` (atropisomer, axis not shown; (P)) [Example 20, N-((S)-1-((3P)-3-(4-chloro-1-methyl-3-(methylsulfonamido)-1H-indazol-7-yl)-7-(3-(difluoromethoxy)phenyl)-4-oxo-3,4-dihydropyrido[2,3-d]pyrimidin-2-yl)-2-(3,5-difluorophenyl)ethyl)-2-((3bS,4aR)-3-(difluoromethyl)-5,5-difluoro-3b,4,4a,5-tetrahydro-1H-cyclopropa[3,4]cyclopenta[1,2-c]pyrazol-1-yl)acetamide], in that order: 0.2 nM and above 100 nM.
In the case of `Cn1nc(C(F)(F)F)cc1-c1ccc2c(=O)n(-c3ccc(Cl)c4c(NS(C)(=O)=O)nn(C)c34)c([C@H](Cc3cc(F)cc(F)c3)NC(=O)Cn3nc(C(F)F)c4c3C(F)(F)[C@@H]3C[C@H]43)nc2n1` (atropisomer, axis not shown; (P)) [Example 83, N-((S)-1-((3P)-3-(4-chloro-1-methyl-3-(methylsulfonamido)-1H-indazol-7-yl)-7-(1-methyl-3-(trifluoromethyl)-1H-pyrazol-5-yl)-4-oxo-3,4-dihydropyrido[2,3-d]pyrimidin-2-yl)-2-(3,5-difluorophenyl)ethyl)-2-((3bS,4aR)-3-(difluoromethyl)-5,5-difluoro-3b,4,4a,5-tetrahydro-1H-cyclopropa[3,4]cyclopenta[1,2-c]pyrazol-1-yl)acetamide], the EC50 in the data set with recombinant NL4-3 virus stood at 0.07 nM. Besides, the CC50 at 4 day in data set [1] is above 100 nM.
Take `Cn1nc(NS(C)(=O)=O)c2c(Cl)ccc(-n3c([C@H](Cc4cc(F)cc(F)c4)NC(=O)Cn4nc(C(F)F)c5c4C(F)(F)[C@@H]4C[C@H]54)nc4nc(-c5cccc(F)n5)ccc4c3=O)c21` (atropisomer, axis not shown; (P)) [Example 30, N-((S)-1-((3P)-3-(4-chloro-1-methyl-3-(methylsulfonamido)-1H-indazol-7-yl)-7-(6-fluoropyridin-2-yl)-4-oxo-3,4-dihydropyrido[2,3-d]pyrimidin-2-yl)-2-(3,5-difluorophenyl)ethyl)-2-((3bS,4aR)-3-(difluoromethyl)-5,5-difluoro-3b,4,4a,5-tetrahydro-1H-cyclopropa[3,4]cyclopenta[1,2-c]pyrazol-1-yl)acetamide]: the EC50 in the data set with recombinant NL4-3 virus was found to be 0.034 nM. Moreover, the CC50 at 4 day in data set [1] was above 100 nM.
For `Cn1nc(NS(C)(=O)=O)c2c(Cl)ccc(-n3c([C@H](Cc4cc(F)cc(F)c4)NC(=O)Cn4nc(C(F)F)c5c4C(F)(F)[C@@H]4C[C@H]54)nc4nc(-c5cccc(C(F)F)n5)ccc4c3=O)c21` (atropisomer, axis not shown; (P)) [Example 38, N-((S)-1-((3P)-3-(4-chloro-1-methyl-3-(methylsulfonamido)-1H-indazol-7-yl)-7-(6-(difluoromethyl)pyridin-2-yl)-4-oxo-3,4-dihydropyrido[2,3-d]pyrimidin-2-yl)-2-(3,5-difluorophenyl)ethyl)-2-((3bS,4aR)-3-(difluoromethyl)-5,5-difluoro-3b,4,4a,5-tetrahydro-1H-cyclopropa[3,4]cyclopenta[1,2-c]pyrazol-1-yl)acetamide], in that order: 0.051 nM and above 100 nM.
For `Cn1nc(NS(C)(=O)=O)c2c(Cl)ccc(-n3c([C@H](Cc4cc(F)cc(F)c4)NC(=O)Cn4nc(C(F)F)c5c4C(F)(F)[C@@H]4C[C@H]54)nc4nc(-c5cc(C(F)(F)F)ccn5)ccc4c3=O)c21` (atropisomer, axis not shown; (P)) [Example 16, N-((S)-1-((3P)-3-(4-chloro-1-methyl-3-(methylsulfonamido)-1H-indazol-7-yl)-4-oxo-7-(4-(trifluoromethyl)pyridin-2-yl)-3,4-dihydropyrido[2,3-d]pyrimidin-2-yl)-2-(3,5-difluorophenyl)ethyl)-2-((3bS,4aR)-3-(difluoromethyl)-5,5-difluoro-3b,4,4a,5-tetrahydro-1H-cyclopropa[3,4]cyclopenta[1,2-c]pyrazol-1-yl)acetamide], in that order: 0.052 nM and above 100 nM.
As for `Cn1nc(NS(C)(=O)=O)c2c(Cl)ccc(-n3c([C@H](Cc4cc(F)cc(F)c4)NC(=O)Cn4nc(C(F)F)c5c4C(F)(F)[C@@H]4C[C@H]54)nc4nc(-c5ccc(S(C)(=O)=O)cc5F)ccc4c3=O)c21` (atropisomer, axis not shown; (P)) [Example 32, N-((S)-1-((3P)-3-(4-chloro-1-methyl-3-(methylsulfonamido)-1H-indazol-7-yl)-7-(2-fluoro-4-(methylsulfonyl)phenyl)-4-oxo-3,4-dihydropyrido[2,3-d]pyrimidin-2-yl)-2-(3,5-difluorophenyl)ethyl)-2-((3bS,4aR)-3-(difluoromethyl)-5,5-difluoro-3b,4,4a,5-tetrahydro-1H-cyclopropa[3,4]cyclopenta[1,2-c]pyrazol-1-yl)acetamide], the EC50 in the data set with recombinant NL4-3 virus came to 0.075 nM. The CC50 at 4 day in data set [1] is above 100 nM.
For `CCC(F)(F)Cn1ccc(-c2ccc3c(=O)n(-c4ccc(Cl)c5c(NS(C)(=O)=O)nn(C)c45)c([C@H](Cc4cc(F)cc(F)c4)NC(=O)Cn4nc(C(F)F)c5c4C(F)(F)[C@@H]4C[C@H]54)nc3n2)n1` (atropisomer, axis not shown; (P)) [Example 86, N-((S)-1-((3P)-3-(4-chloro-1-methyl-3-(methylsulfonamido)-1H-indazol-7-yl)-7-(1-(2,2-difluorobutyl)-1H-pyrazol-3-yl)-4-oxo-3,4-dihydropyrido[2,3-d]pyrimidin-2-yl)-2-(3,5-difluorophenyl)ethyl)-2-((3bS,4aR)-3-(difluoromethyl)-5,5-difluoro-3b,4,4a,5-tetrahydro-1H-cyclopropa[3,4]cyclopenta[1,2-c]pyrazol-1-yl)acetamide], in that order: 0.084 nM and above 100 nM.
